These results are taken from patent publication US8057990B2, “Screening method” (Takeda Pharmaceutical Company Limited, priority 2005, dated 2011).

The target in one assay is rat GPR30 (Rattus norvegicus, UniProt O08878, S320N). Particulars: rat GPR30 expression CHO cells; tacrine 0.67-67 μM; Fluo 3-AM.
Assay [1] addresses T1, human GPR30 (Homo sapiens, UniProt Q99527, P21A/Q20H). Conditions: GPR30 expression HeLa cells; tacrine 100 μM; 4 hours.
Description: (§1) Separately, a reporter plasmid of pSRE-Luc (Invitrogen) ligated with a luciferase gene as a reporter at a downstream position of a serum response element (SRE), and expression vector plasmids for human GαoA, human Gβ1 and human Gγ2, which are each a kind of G proteins, were prepared in substantially the same manner. HeLa cells were used as host cells for transfecting the G protein-coupled receptor protein expression plasmid pAK-hGPR30 and the reporter plasmids. The cells were planted on a 384-well assay plate (COSTAR 3704) at a ratio of 4000 cells/well in a culture volume of 25 μl, and incubated overnight. As the medium, DMEM (Invitrogen) supplemented with 10% fetal bovine serum and 1% MEM non-essential amino acids solution (DMEM/NEAA) was used. Each plasmid was diluted to a concentration of 240 ng/μl. Plasmids were added to 250 μl of Opti-MEM-I (Invitrogen) at a ratio of 1 μl of pAK-hGPR30, 9 μl of the reporter plasmid, and 1 μl of each of the G protein expression plasmids for GαoA, Gβ1 and Gγ2. […] After the cells were lysed and thoroughly mixed with the substrate, the chemiluminescence level corresponding to the expression induction level of the reporter gene in each well was measured on a plate reader (EnVision™, Perkin Elmer).
In assay [2] the target is T1, human GPR30. Particulars: human GPR30 expression CHO cells; tacrine 0.67-67 μM; Fluo 3-AM.
Description: 200 μl of each type of cells was planted in each well of a 96-well plate for FLIPR (Black plate clear bottom, Coster) using an 8-channel pipette (3.0×10^4 cells/200 μl/well) and cultured in a 5% CO2 incubator at 37° C. overnight (hereinafter, referred to as the “cell plate”) before use. 20 ml of H/HBSS, 200 μl of 250 mM Probenecid, and 200 μl of fetal bovine serum (FBS) were mixed. 2 vials (50 μg) of Fluo 3-AM (Dojindo Laboratories) were lysed in […] of dimethylsulfoxide and 40 μl of 20% Pluronic acid (Molecular Probes), and the resultant substance was added to H/HBSS-Probenecid-FBS and mixed. Then, the resultant mixture was divided into units of 100 μl and put to each well of the cell plate deprived of the culture fluid using an 8-channel pipette, and incubated in a 5% CO2 incubator at 37° C. for 1 hour (colorant loading). 8 μl of a tacrine solution (Aldrich Chemical Company) of various concentrations was added to 259 μl of H/HBSS containing 2.5 mM Probenecid, 0.1% CHAPS and 0.1% BSA, and diluted. […] The cell plate and the sample plate were set in an FLIPR (501 of sample was transferred from the sample plate to the cell plate by the FLIPR), and a change of the fluorescent intensity was measured over-time. Thus, the intracellular calcium ion concentration increase activity was measured.
In assay [3] the test system is HeLa cells not expressing human GPR30. Conditions: pAKKO-1.11H-transfected control HeLa cells; tacrine 100 μM; 4 hours.
Description: as §1

T1 sequence (Q99527 whole entry Q20H/P21A): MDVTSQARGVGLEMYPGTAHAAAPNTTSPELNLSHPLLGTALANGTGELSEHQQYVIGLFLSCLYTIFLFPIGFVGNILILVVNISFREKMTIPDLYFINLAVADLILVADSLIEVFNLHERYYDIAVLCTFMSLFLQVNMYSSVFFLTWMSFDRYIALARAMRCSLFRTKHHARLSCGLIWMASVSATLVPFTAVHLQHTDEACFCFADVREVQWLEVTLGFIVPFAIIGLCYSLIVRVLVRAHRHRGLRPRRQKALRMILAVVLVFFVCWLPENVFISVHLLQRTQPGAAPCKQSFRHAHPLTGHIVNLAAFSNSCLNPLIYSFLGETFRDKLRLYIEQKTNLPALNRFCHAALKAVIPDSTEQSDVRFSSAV
rat GPR30, sequence (O08878 whole entry S320N): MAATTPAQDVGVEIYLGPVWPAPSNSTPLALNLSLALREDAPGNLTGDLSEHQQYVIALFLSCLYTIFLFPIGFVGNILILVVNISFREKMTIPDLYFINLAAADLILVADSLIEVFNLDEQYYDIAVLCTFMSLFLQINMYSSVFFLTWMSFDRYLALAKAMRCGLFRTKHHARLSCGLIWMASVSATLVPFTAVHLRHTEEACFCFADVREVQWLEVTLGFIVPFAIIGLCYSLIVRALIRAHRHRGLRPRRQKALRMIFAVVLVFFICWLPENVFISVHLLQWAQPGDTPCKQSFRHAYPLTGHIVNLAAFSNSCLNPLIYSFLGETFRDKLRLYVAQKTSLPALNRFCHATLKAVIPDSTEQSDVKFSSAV
Description for rat GPR30: The plasmid pAK-rGPR30 was transduced by electroporation into CHO/dhfr^− cells (American Type Culture Collection) in the method described in REFERENCE EXAMPLE 1, and transformed CHO cells expressing rat GPR30 (hereinafter, referred to simply as “rat GPR30 cells”) at a high ratio were selected.
200 μl of each type of cells was planted in each well of a 96-well plate for FLIPR (Black plate clear bottom, Coster) using an 8-channel pipette (3.0×10^4 cells/200 μl/well) and cultured in a 5% CO2 incubator at 37° C. overnight (hereinafter, referred to as the “cell plate”) before use. 20 ml of H/HBSS, 200 μl of 250 mM Probenecid, and 200 μl of fetal bovine serum (FBS) were mixed. 2 vials (50 μg) of Fluo 3-AM (Dojindo Laboratories) were lysed in […] of dimethylsulfoxide and 40 μl of 20% Pluronic acid (Molecular Probes), and the resultant substance was added to H/HBSS-Probenecid-FBS and mixed. […] The cell plate and the sample plate were set in an FLIPR (501 of sample was transferred from the sample plate to the cell plate by the FLIPR), and a change of the fluorescent intensity was measured over-time. Thus, the intracellular calcium ion concentration increase activity was measured.

For `Nc1c2c(nc3ccccc13)CCCC2` [tacrine, 1,2,3,4-tetrahydro-9-acridinamine], the “intracellular calcium ion concentration (change of fluorescent intensity, FLIPR)” value on rat GPR30 and on human GPR30 [2] was “increased in a concentration-depending manner” throughout. For the same compound, the “luciferase activity (pSRE-Luc reporter)” value at human GPR30 [1] is on record as “significant increase”; in assay [3], “no significant activity increase”.
